Measurements reported in PMC6437697 (Journal of Medicinal Chemistry, 2019).

Legend:
Assay in all cases: KINOMEscan
Format in all cases: binding
Conditions in all cases: read-out: % control activity remaining
[1] = biological target: T1, HASPIN (Homo sapiens, UniProt Q8TF76)
T1 construct: purchased Eurofins DiscoverX KINOMEscan
T1 sequence (Q8TF76 1-798): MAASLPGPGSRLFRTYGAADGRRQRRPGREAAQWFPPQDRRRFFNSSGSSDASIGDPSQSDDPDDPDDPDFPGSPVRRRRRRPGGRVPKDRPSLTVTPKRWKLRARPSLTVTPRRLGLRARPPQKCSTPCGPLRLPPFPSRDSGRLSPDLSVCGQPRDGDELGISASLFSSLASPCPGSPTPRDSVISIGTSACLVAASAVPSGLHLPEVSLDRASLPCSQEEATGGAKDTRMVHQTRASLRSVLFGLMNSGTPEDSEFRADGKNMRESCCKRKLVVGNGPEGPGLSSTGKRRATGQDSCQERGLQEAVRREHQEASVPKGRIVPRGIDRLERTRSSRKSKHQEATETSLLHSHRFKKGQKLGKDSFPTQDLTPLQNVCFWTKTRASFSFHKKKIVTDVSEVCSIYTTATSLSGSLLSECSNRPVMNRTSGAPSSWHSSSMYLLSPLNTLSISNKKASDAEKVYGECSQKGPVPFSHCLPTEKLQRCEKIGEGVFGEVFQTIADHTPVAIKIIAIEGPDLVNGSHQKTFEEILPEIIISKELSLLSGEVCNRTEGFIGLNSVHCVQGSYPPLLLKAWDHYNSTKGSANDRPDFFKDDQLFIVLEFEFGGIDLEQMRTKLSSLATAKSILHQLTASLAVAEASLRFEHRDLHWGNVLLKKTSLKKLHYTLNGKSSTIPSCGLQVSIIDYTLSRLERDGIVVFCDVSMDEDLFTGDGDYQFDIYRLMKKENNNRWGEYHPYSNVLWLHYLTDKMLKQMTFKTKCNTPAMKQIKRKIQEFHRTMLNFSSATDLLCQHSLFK

[2] = biological target: T2, EGFR (Homo sapiens, UniProt P00533)
T2 construct: purchased Eurofins DiscoverX KINOMEscan

[3] = biological target: T3, PKAC-alpha (Homo sapiens, UniProt P17612)
T3 construct: purchased Eurofins DiscoverX KINOMEscan

[4] = biological target: T4, DRAK1 (Homo sapiens, UniProt Q9UEE5)
T4 construct: purchased Eurofins DiscoverX KINOMEscan
T4 sequence (Q9UEE5 1-414): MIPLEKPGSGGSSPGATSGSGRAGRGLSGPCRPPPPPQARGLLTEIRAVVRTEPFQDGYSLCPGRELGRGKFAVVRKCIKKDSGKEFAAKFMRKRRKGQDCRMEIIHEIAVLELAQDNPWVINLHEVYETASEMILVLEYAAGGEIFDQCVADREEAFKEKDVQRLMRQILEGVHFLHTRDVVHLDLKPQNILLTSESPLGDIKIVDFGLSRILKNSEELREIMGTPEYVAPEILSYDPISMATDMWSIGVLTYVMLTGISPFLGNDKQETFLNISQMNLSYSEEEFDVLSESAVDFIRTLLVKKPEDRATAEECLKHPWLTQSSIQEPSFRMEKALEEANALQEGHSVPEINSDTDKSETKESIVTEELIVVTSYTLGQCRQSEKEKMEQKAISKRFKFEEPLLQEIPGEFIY

[5] = biological target: T5, ADCK4 (Homo sapiens, UniProt Q96D53)
T5 construct: purchased Eurofins DiscoverX KINOMEscan
T5 sequence (Q96D53 1-544): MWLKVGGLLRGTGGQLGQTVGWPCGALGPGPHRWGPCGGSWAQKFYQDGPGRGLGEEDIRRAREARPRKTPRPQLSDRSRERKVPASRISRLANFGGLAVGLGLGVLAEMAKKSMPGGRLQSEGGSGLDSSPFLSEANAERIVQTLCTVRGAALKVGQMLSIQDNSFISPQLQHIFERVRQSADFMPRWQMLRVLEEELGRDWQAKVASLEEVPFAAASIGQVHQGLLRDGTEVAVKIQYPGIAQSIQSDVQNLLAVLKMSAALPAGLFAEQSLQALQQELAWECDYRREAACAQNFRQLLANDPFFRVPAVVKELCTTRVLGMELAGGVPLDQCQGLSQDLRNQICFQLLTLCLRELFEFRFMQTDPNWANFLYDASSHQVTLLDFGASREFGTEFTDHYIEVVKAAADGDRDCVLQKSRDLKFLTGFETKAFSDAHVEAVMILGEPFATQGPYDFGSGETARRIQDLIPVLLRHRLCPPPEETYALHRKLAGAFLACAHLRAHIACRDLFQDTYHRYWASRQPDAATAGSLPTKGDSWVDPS

[6] = biological target: T6, MRCKB (Homo sapiens, UniProt Q9Y5S2)
T6 construct: purchased Eurofins DiscoverX KINOMEscan

[7] = biological target: T7, RSK1(Kin.Dom.1-N-terminal) (Homo sapiens, UniProt Q15418)
T7 construct: RSK1(Kin.Dom.1-N-terminal); purchased Eurofins DiscoverX KINOMEscan
T7 sequence (Q15418 62-321 limits assumed): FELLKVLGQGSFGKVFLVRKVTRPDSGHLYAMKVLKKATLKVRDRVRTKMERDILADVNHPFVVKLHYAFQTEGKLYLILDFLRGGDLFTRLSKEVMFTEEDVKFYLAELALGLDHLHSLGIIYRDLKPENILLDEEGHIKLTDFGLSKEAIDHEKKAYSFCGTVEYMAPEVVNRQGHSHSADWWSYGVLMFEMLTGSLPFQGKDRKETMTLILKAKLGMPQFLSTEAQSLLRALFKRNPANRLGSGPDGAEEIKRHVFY

T2 sequence (P00533 25-1210 limits assumed): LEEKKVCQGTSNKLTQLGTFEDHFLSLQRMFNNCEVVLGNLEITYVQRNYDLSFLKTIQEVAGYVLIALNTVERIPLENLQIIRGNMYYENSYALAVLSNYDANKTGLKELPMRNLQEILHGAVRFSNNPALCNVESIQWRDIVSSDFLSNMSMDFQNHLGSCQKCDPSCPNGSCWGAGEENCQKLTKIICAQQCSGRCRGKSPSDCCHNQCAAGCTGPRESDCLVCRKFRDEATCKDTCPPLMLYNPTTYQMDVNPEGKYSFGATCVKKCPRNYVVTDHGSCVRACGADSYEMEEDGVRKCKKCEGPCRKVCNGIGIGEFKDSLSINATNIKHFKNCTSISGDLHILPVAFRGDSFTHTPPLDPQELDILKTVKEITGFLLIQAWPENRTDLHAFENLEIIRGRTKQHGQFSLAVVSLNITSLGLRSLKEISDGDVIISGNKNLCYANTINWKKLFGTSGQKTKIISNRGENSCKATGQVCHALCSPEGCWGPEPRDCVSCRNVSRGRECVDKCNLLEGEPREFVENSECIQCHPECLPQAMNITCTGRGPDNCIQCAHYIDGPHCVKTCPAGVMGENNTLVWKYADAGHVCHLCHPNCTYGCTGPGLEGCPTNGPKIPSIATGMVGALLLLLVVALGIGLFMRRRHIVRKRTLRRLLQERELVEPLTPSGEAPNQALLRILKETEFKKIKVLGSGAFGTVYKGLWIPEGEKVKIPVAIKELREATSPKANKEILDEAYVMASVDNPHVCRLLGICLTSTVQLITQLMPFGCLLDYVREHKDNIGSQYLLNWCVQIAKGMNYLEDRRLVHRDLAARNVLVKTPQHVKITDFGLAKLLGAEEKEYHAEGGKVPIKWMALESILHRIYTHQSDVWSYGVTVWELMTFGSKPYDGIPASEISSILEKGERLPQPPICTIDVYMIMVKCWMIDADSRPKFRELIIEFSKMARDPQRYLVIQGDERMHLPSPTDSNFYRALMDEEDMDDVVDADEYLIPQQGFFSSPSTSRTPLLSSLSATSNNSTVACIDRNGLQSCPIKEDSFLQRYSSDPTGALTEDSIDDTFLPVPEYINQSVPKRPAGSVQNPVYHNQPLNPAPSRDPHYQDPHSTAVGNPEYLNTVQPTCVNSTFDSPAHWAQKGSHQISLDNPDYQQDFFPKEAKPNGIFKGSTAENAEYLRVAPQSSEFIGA
T6 sequence (Q9Y5S2 whole entry): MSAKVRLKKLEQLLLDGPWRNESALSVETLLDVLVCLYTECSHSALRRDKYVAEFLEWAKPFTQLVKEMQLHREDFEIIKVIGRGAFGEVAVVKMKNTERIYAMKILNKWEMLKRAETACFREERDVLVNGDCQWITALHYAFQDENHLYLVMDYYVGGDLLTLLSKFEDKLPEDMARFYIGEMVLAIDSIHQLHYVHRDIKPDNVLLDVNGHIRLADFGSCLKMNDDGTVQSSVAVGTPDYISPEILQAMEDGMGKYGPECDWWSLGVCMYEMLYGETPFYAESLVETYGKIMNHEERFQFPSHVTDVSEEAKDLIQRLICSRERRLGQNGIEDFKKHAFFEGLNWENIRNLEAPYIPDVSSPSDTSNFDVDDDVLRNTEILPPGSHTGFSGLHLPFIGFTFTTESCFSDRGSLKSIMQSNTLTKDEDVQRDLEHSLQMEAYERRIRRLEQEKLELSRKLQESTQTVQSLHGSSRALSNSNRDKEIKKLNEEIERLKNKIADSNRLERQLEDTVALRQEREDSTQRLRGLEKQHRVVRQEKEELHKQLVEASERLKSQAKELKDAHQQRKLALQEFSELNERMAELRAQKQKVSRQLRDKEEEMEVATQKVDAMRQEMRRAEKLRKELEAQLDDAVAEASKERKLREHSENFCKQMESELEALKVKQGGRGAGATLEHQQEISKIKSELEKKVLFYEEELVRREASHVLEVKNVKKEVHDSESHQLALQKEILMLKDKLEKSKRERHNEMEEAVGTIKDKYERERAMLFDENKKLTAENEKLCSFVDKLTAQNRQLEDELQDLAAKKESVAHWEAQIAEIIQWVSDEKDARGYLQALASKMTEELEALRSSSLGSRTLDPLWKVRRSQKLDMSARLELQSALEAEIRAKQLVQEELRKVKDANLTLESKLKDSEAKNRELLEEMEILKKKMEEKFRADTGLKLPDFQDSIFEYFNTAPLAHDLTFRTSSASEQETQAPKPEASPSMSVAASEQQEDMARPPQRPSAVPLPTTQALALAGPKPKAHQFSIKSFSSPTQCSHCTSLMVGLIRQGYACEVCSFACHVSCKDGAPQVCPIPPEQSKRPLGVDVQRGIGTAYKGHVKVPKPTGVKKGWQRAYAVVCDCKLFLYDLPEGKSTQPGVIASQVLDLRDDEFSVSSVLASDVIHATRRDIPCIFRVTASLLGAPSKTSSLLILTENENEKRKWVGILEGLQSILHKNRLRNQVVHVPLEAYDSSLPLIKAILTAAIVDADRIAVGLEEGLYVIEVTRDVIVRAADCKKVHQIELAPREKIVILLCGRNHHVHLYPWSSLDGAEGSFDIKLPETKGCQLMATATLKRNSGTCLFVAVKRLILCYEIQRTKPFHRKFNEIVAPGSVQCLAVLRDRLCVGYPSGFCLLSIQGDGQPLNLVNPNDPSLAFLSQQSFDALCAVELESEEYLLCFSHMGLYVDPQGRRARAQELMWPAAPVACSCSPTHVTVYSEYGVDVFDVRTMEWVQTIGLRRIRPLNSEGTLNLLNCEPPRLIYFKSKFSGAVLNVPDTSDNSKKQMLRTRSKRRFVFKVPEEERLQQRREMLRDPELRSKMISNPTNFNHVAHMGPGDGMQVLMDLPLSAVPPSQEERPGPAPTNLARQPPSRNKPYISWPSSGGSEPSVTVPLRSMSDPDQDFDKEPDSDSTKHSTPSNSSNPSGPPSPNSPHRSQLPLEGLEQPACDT

SMILES | remaining binding at 1 µM [1] [%] | remaining binding at 1 µM [2] [%] | remaining binding at 1 µM [3] [%] | remaining binding at 1 µM [4] [%] | remaining binding at 1 µM [5] [%] | remaining binding at 1 µM [6] [%] | remaining binding at 1 µM [7] [%]
Clc1cc(NCC2CC2)c2ncc(-c3ccc4[nH]ncc4c3)n2n1 [compound 2, 6-Chloro-N-(cyclopropylmethyl)-3-(1H-indazol-5-yl)imidazo[1,2-b]pyridazin-8-amine] | 21 | 71 | 68 | 18 | 93 | 64 | 72
O=C(CN1CCOCC1)N[C@H]1CC[C@H](Nc2cc(Cl)nn3c(-c4ccc5[nH]ncc5c4)cnc23)CC1 [compound 26] | 22 | 80 | 100 | 20 | 84 | 97 | 54
CN1CCC(CNc2cc(Cl)nn3c(-c4cc5nc(Nc6ccccc6)[nH]c5cc4F)cnc23)CC1 [compound 31, 6-Chloro-3-(6-fluoro-2-(phenylamino)-1H-benzo[d]imidazol-5-yl)-N-((1-methylpiperidin-4-yl)methyl)imidazo[1,2-b]pyridazin-8-amine] | 66 | 100 | 94 | 91 | 77 | 100 | 100
